Results as given in patent publication US20100022509A1, “Inhibitors of MshC and Homologs Thereof, and Methods of Identifying Same” (priority 2006, published 2010).

Tests used:
Format in all cases: biochemical, M. tuberculosis
MshC [1] = target: T1, MshC (Mycobacterium tuberculosis, UniProt P9WJM9); experiment: Metal chelation by phenanthrolines; settings: 0.1-5 mM phenanthroline
T1 sequence (P9WJM9 1-414): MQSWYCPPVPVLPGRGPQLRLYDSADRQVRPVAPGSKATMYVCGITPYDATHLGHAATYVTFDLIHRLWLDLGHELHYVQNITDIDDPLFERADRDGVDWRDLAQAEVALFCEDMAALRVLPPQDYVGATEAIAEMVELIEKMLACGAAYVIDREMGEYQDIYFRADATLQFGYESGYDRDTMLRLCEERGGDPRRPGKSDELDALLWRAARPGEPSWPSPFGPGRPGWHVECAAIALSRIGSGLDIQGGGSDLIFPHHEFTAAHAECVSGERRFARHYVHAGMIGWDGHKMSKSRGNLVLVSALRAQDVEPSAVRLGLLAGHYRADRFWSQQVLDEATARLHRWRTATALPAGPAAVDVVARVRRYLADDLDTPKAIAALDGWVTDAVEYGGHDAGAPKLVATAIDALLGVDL

MshC [2] = target: T1, MshC; experiment: Inhibition studies of MshC ligase activity (HEPES pH 7.5, HPLC); settings: for inhibition of the ligase activity, in words: 80-1600 μM, 70 μM L-Cys and 50 μM GlcN-Ins; for % inhibition: 50 μM GlcN-Ins and 70 μM Cys
MshC [3] = target: T1, MshC
MshC [4] = target: T1, MshC; experiment: Zn supplementation; settings: 2, 10, 50 or 100 μM zinc chloride
MshC [5] = target: T1, MshC; experiment: biochemical; settings: using the HPLC assay
MshC [6] = target: T1, MshC; experiment: Coupled enzyme spectrophotometric screening assay (MshC plus pyrophosphatase, malachite green); settings: 1.6 mM cysteamine, 1 μg MshC

SMILES	inhibition of the ligase activity, in words (MshC [2])	relative spec. act. (MshC [3])	% inhibition (MshC [2]; [inhibitor] 1600 μM)	further results
c1cnc2c(c1)ccc1cccnc12 [1,10-phenanthroline]	–	–	–	effect on enzyme activity, in words (MshC [1]): no significant loss of activity
N[C@@H](CO)C(=O)O [L-serine]	very minor inhibition	≦0.008	–	% inhibition (MshC [2]; [inhibitor] 5000 μM): 15 ± 8%; activity as alternative substrate to Cys, in words (MshC [3]; 80 μM to 1.6 mM): Nor was significant activity detected
[Cl-].[Cl-].[Zn+2] [Zn^2+, zinc chloride]	–	–	–	effect on enzyme activity, in words (MshC [4]): loss in activity
NCCS [cysteamine]	–	≦0.16	65 ± 10%	inhibition of the reaction catalyzed by MshC, in words (MshC [5]): weak inhibitor; rate of phosphate production in the coupled enzyme assay (MshC [6]): markedly depressed; reduction in rate (MshC [2]; 1.6 mM): 3 fold
O=C(O)CCS [β-mercaptopropionate, β-mercaptopropionic acid]	minor inhibition	≦0.004	−20 ± 20%	–
